# Measured values as given in PubChem BioAssay AID1963425 (Molecular Pharmacology Branch, DTP, NCI, 2024).
# Where “and” joins values, the source holds several entries; their conditions need not be identical. Equal entries are not always repeated.
# Tested on: 323965-272-R-J2-PDC complex spheroid growth, % test/control
# Assay: Anticancer human tumor 323965-272-R-J2-PDC patient-derived pancreatic carcinoma cell line growth inhibition [Asc]
# Conditions: for viability, T/C: stronger effect = lower value
# Summary of the method: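 Complex spheroids combining tumor cells with HUVEC endothelial cells and human MSCs, at 37 degrees C, 5% CO2; agents tested alone or combined, half-log dilutions from at or near clinical Cmax, or 10 microM if Cmax unknown.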
# [1] = curve of first compound, second compound 0.0316 µM
# [2] = curve of first compound, second compound 0.1 µM
# [3] = curve of first compound, second compound 0.316 µM
# [4] = curve of first compound, second compound 1 µM
# [5] = second compound 0.0316 µM, first compound 0.0316 µM
# [6] = second compound 0.0316 µM, first compound 0.1 µM
# [7] = second compound 0.0316 µM, first compound 0.316 µM
# [8] = second compound 0.0316 µM, first compound 1 µM
# [9] = second compound 0.0316 µM, first compound 3.16 µM
# [10] = second compound 0.0316 µM, first compound 10 µM
# [11] = second compound 0.1 µM, first compound 0.0316 µM
# [12] = second compound 0.1 µM, first compound 0.1 µM
# [13] = second compound 0.1 µM, first compound 0.316 µM
# [14] = second compound 0.1 µM, first compound 1 µM
# [15] = second compound 0.1 µM, first compound 3.16 µM
# [16] = second compound 0.1 µM, first compound 10 µM
# [17] = second compound 0.316 µM, first compound 0.0316 µM
# [18] = second compound 0.316 µM, first compound 0.1 µM
# [19] = second compound 0.316 µM, first compound 0.316 µM
# [20] = second compound 0.316 µM, first compound 1 µM
# [21] = second compound 0.316 µM, first compound 3.16 µM
# [22] = second compound 0.316 µM, first compound 10 µM
# [23] = second compound 1 µM, first compound 0.0316 µM
# [24] = second compound 1 µM, first compound 0.1 µM
# [25] = second compound 1 µM, first compound 0.316 µM
# [26] = second compound 1 µM, first compound 1 µM
# [27] = second compound 1 µM, first compound 3.16 µM
# [28] = second compound 1 µM, first compound 10 µM
# 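Also: compound exposure lasted 7 days starting three days after spheroid seeding.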
# 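For viability, T/C in this document: 100% = DMSO vehicle control wells with viability set relative to vehicle.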
structure (smiles),measurement,setting,value
O=C(c1cc(Cc2n[nH]c(=O)c3ccccc23)ccc1F)N1CCN(C(=O)C2CC2)CC1 + Cc1c(S(C)(=O)=O)c(-c2cc(F)cc(N3CCN(c4ccc(NS(=O)(=O)c5ccc(NC(CCN6CCC(C(=O)OCCCP(=O)(O)O)CC6)CSc6ccccc6)c(S(=O)(=O)C(F)(F)F)c5)cc4)CC3)c2)c(-c2ccc(Cl)cc2)n1C(C)C,IC50,[1],> 10 µM
same,IC50,[2],> 10 µM
same,IC50,[3],> 10 µM
same,IC50,[4],> 10 µM
same,IC50,"curve of first compound, second compound 3.16 µM",> 10 µM
same,IC50,"curve of first compound, second compound 10 µM",> 10 µM
same,"viability, T/C",[5],87.5%
same,"viability, T/C",[6],92.7%
same,"viability, T/C",[7],95.7%
same,"viability, T/C",[8],98.9%
same,"viability, T/C",[9],98.3%
same,"viability, T/C",[10],89%
same,"viability, T/C",[11],103%
same,"viability, T/C",[12],93%
same,"viability, T/C",[13],98.1%
same,"viability, T/C",[14],91.2%
same,"viability, T/C",[15],95%
same,"viability, T/C",[16],88.2%
same,"viability, T/C",[17],92.4%
same,"viability, T/C",[18],90.5%
same,"viability, T/C",[19],92.8%
same,"viability, T/C",[20],87.7%
same,"viability, T/C",[21],91.6%
same,"viability, T/C",[22],74.7%
same,"viability, T/C",[23],85.6%
same,"viability, T/C",[24],79.3%
same,"viability, T/C",[25],83.8%
same,"viability, T/C",[26],84.2%
same,"viability, T/C",[27],80.8%
same,"viability, T/C",[28],72.2%
same,"viability, T/C","second compound 3.16 µM, first compound 0.0316 µM",85.9%
same,"viability, T/C","second compound 3.16 µM, first compound 0.1 µM",76.5%
same,"viability, T/C","second compound 3.16 µM, first compound 0.316 µM",78.6%
same,"viability, T/C","second compound 3.16 µM, first compound 1 µM",74.2%
same,"viability, T/C","second compound 3.16 µM, first compound 3.16 µM",78.4%
same,"viability, T/C","second compound 3.16 µM, first compound 10 µM",60.2%
same,"viability, T/C","second compound 10 µM, first compound 0.0316 µM",72.4%
same,"viability, T/C","second compound 10 µM, first compound 0.1 µM",75.2%
same,"viability, T/C","second compound 10 µM, first compound 0.316 µM",64.9%
same,"viability, T/C","second compound 10 µM, first compound 1 µM",71.1%
same,"viability, T/C","second compound 10 µM, first compound 3.16 µM",81.1%
same,"viability, T/C","second compound 10 µM, first compound 10 µM",51.8%
CCN1CCN(Cc2ccc(Nc3ncc(F)c(-c4cc(F)c5nc(C)n(C(C)C)c5c4)n3)nc2)CC1,"viability, T/C",compound 0.00316 µM,114% and 101% and 112%
same,"viability, T/C",compound 0.01 µM,109% and 98.9% and 112%
same,"viability, T/C",compound 0.0316 µM,91.6% and 94.6% and 76.7%
same,"viability, T/C",compound 0.1 µM,75.6% and 84.4% and 76.1%
same,"viability, T/C",compound 0.316 µM,65.8% and 71.8% and 68%
same,"viability, T/C",compound 1 µM,67.9% and 74.1% and 82.3%
same,IC50,curve of compound,> 1 µM
O=C(c1cc(Cc2n[nH]c(=O)c3ccccc23)ccc1F)N1CCN(C(=O)C2CC2)CC1 + CNC(C)C(=O)NC1CN(S(=O)(=O)c2cccc(S(=O)(=O)N3CCC4CCC(C(=O)NC(c5ccccc5)c5ccccc5)N4C(=O)C(NC(=O)C(C)NC)C3)c2)CCC2CCC(C(=O)NC(c3ccccc3)c3ccccc3)N2C1=O,IC50,"curve of first compound, second compound 0.00316 µM",< 0.0316 µM
same,IC50,"curve of first compound, second compound 0.01 µM",> 10 µM
same,IC50,[1],> 10 µM
same,IC50,[2],> 10 µM
same,IC50,[3],> 10 µM
same,IC50,[4],> 10 µM
same,"viability, T/C","second compound 0.00316 µM, first compound 0.0316 µM",43.1%
same,"viability, T/C","second compound 0.00316 µM, first compound 0.1 µM",45.3%
same,"viability, T/C","second compound 0.00316 µM, first compound 0.316 µM",41%
same,"viability, T/C","second compound 0.00316 µM, first compound 1 µM",47.4%
same,"viability, T/C","second compound 0.00316 µM, first compound 3.16 µM",44.6%
same,"viability, T/C","second compound 0.00316 µM, first compound 10 µM",36.6%
same,"viability, T/C","second compound 0.01 µM, first compound 0.0316 µM",99.4%
same,"viability, T/C","second compound 0.01 µM, first compound 0.1 µM",101%
same,"viability, T/C","second compound 0.01 µM, first compound 0.316 µM",97.5%
same,"viability, T/C","second compound 0.01 µM, first compound 1 µM",94.5%
same,"viability, T/C","second compound 0.01 µM, first compound 3.16 µM",75.9%
same,"viability, T/C","second compound 0.01 µM, first compound 10 µM",72%
same,"viability, T/C",[5],101%
same,"viability, T/C",[6],99.4%
same,"viability, T/C",[7],100%
same,"viability, T/C",[8],105%
same,"viability, T/C",[9],102%
same,"viability, T/C",[10],70.7%
same,"viability, T/C",[11],92.6%
same,"viability, T/C",[12],91.9%
same,"viability, T/C",[13],89.7%
same,"viability, T/C",[14],99.3%
same,"viability, T/C",[15],94.5%
same,"viability, T/C",[16],71.9%
same,"viability, T/C",[17],93.4%
same,"viability, T/C",[18],89.1%
same,"viability, T/C",[19],97.9%
same,"viability, T/C",[20],89.7%
same,"viability, T/C",[21],93.7%
same,"viability, T/C",[22],80%
same,"viability, T/C",[23],94.5%
same,"viability, T/C",[24],87%
same,"viability, T/C",[25],83.3%
same,"viability, T/C",[26],93.1%
same,"viability, T/C",[27],89.2%
same,"viability, T/C",[28],68.3%
